The text below walks through data of US9790180B2, “Piperidine derivatives as HDAC1/2 inhibitors” (Acetylon Pharmaceuticals, Inc., priority 2014, dated 2017).

Values after ≈ are worked out from the molar mass of the structure shown. Where two headings read alike, the source gives them in different places.

Data set [1] relates to fetal β-like globin (HbG, γ). As to the kind of experiment: Fetal globin induction assay in CD34+ cells isolated from human bone marrow. It is filed as cell-based. To be noted: for Cell based assay potency: lowest concentration to achieve a 2 fold increase in fetal globin gene expression over baseline. On the procedure:
CD34+ cells isolated from human bone marrow were cultured in vitro using a method described by Bradner J E (Proc Natl Acad Sci USA. 2010 Jul. 13; 107(28):12617-22), which consists of a 7 day expansion phase in media that supports differentiation of cells towards the erythroid lineage followed by a differentiation phase for 3 days where erythroid cell development continues. At the end of the differentiation period these cells are primarily late erythroblasts. mRNA levels were determined by quantitative real time PCR using primer/probe sets designed to adult major β-globin (β), adult minor β-globin (δ), fetal β-like globin (HbG, γ), and embryonic β-like globin (ε). Protein levels were determined by flow cytometry using fluorescent antibodies against fetal hemoglobin (HbF) or adult hemoglobin (HbA).
In the experiment shown in FIG. 3, cells were differentiated in the presence of vehicle (DMSO) 0.3, 1 and 3 μM of Compound A, and of 0.3, 1, and 3 μM of Compound 003. In the experiment shown in FIG. 6, cells were differentiated in the presence of vehicle (DMSO) 0.3, 1 and 3 μM of Compound A, and of 0.3, 1, and 3 μM of Compound 005. Globin mRNA levels were determined at day 3 of differentiation.

A further data set has as its target HDAC1 (Homo sapiens (Human), UniProt Q13547). The data set can be described thus: HDAC enzyme assay, HDAC1. It counts as biochemical. On the procedure:
(§1) Compounds for testing were diluted in DMSO to 50 fold the final concentration and a ten point three fold dilution series was made. The compounds were diluted in assay buffer (50 mM HEPES, pH 7.4, 100 mM KCl, 0.001% Tween-20, 0.05% BSA, 20 μM tris(2-carboxyethyl)phosphine) to 6 fold their final concentration. The HDAC enzymes (purchased from BPS Biosciences) were diluted to 1.5 fold their final concentration in assay buffer and pre-incubated with the compounds for 24 hours prior to addition of the substrate.
(§2) The substrate tripeptide substrate 3 (synthesized in house) for each enzyme was equal to the Km as determined by a substrate titration curve. The substrates were diluted in assay buffer at 6× their final concentration with 0.3 μM sequencing grade trypsin (Sigma). The substrate/trypsin mix was added to the enzyme/compound mix, the plate was shaken for 60 seconds and placed into a Spectramax M5 microtiter plate reader. The development of fluorescence was monitored for 30 min and the linear rate of the reaction was calculated. The IC50 was determined using Graph Pad Prism by a four parameter curve fit. The IC50 values obtained for the compounds of this invention are found in Table 1. Examples of the curves are found in FIGS. 1 and 4.

The next data set has as its target hERG channel (Homo sapiens (Human), UniProt Q12809). As to the kind of experiment: hERG assay (QPatch, CHO cell line expressing hERG channels). It is filed as cell-based. Conditions: In vitro tox. The method, then:
For hERG assays, a CHO cell line stably transfected with hERG cDNA and expressing hERG channels were seeded into a QPatch plate (Sophion) at a density of 3-8×10^6 cells/ml. The cells were voltage clamped at a holding potential of −80 mV. The hERG current was activated by depolarizing at +20 mV for 5 sec, after which the current was taken back to −50 mV for 5 sec to remove the inactivation and observe the deactivating tail current. The maximum amount of tail current size was used to determine hERG current amplitude. Six doses (30, 10, 3, 1, 0.3 and 0.1 μM) of Compound 003 were chosen to obtain fitting curves and IC50. Data were analyzed using Assay Software provided by Sophion and Graphpad Prism.

Another data set in a line: Solubility. It counts as physicochemical.
Another data set addresses HDAC2 (Homo sapiens (Human), UniProt Q92769). The data set can be described thus: HDAC enzyme assay, HDAC2. It counts as biochemical. The method, then:
as §1, §2

A short description of data set [2]: Rat cassette pharmacokinetics. It is filed as in vivo. To be noted: male, SD, plasma; for bioavailability: 5 mg/kg, rat, oral AUC to IV AUC, dose adjusted; for AUC / Cmax / half-life / CL renal: rat cassette dosing; for AUC / Cmax / half-life: 5 mg/kg PO; for half-life: read-out: PO T½ (converted); for CL renal: IV 1 mg/kg, read-out: IV Clr. (converted). The method, then:
Male SD rats were fasted overnight. Compounds of the invention were dissolved in dimethyl acetamide at 10 times the final concentration, then Solutol HS 15 (BASF) was added to a final concentration of 10%. Finally 80% saline was added and vortexed to achieve a clear solution. For the IV dosing three animals were injected via the foot dorsal vein with 1 mg/kg compound. For the PO dosing 5 mg/kg of compound was delivered by oral gavage. Blood was collected via the tail vein into K2EDTA tubes at 5 minutes, 15 minutes, 30 minutes, 1 hour, 2 hours, 4 hours, 8 hours and 24 hours after dosing. The blood was centrifuged at 2000 g for 5 minutes at 4° C. to obtain plasma. The plasma was extracted with acetonitrile and the level of compound was analyzed by LC/MS/MS. The level of compound in plasma was calculated from a standard curve in rat plasma. The IV clearance and area under the curve were calculated using WinNonLin software. The dose adjusted area under the curve for the IV and oral dosing were used to calculate the oral bioavailability.

The next data set addresses HDAC3 (Homo sapiens (Human), UniProt O15379). The data set can be described thus: HDAC enzyme assay, HDAC3. It is filed as biochemical. The method, then:
as §1, §2

Another data set is described as follows: Microsome stability. It is filed as in vitro ADME.
The test system of data set [3] is CYP1A2, CYP2C9, CYP2C19, CYP3A4, CYP2D6. The data set can be described thus: Cyp inhibition in human liver microsomes. It counts as in vitro ADME. Conditions: In vitro tox; human liver microsomes. On the procedure: For Cyp inhibition, human live microsomes from BD Gentest were incubated with Compound 003 (10, 3.33, 1.11, 0.37, 0.12, 0.04, 0.01 μM) and substrate (CYP1A2: Phenacetin at 30 μM; CYP2C9: Diclofenac at 10 μM; CYP2C19: S-Mephenytoin at 35 μM; CYP3A4: Midazolam at 5 μM and Testosterone at 80 μM; CYP2D6: Bufuralol at 10 μM) for the following incubation times: CYP1A2, 2C9, 2D6: 10 minutes, 37° C.; CYP2C19: 45 minutes, 37° C.; CYP3A4: 5 minutes, 37° C. Substrate conversion was measured by liquid chromatography/mass spectrometry/mass spectrometry (LC/MS/MS). Inhibition was calculated by curve fitting in Graph Pad Prism.

The next data set deals with Gata2 mRNA. The data set can be described thus: Gata2 mRNA induction in erythroid progenitors. It counts as cell-based, human. To be noted: primary erythroid progenitors, 3 days differentiation, relative to beta-actin mRNA (FIG. 7). An excerpt:
Human bone marrow derived CD34+ cells were expanded for 7 days as described by Sankaran et al., Science, vol. 322(5909), pp. 1839-42 (2008). Cells were then differentiated, in the presence of the indicated concentration of Compound 005, Compound A (another known HDAC1/2 inhibitor), or vehicle control (DMSO), for 3 days in media supporting erythropoiesis (Hu et al., “Isolation and functional characterization of human erythroblasts at distinct stages: implications for understanding of normal and disordered erythropoiesis in vivo”, Blood, vol. 121(16), pp. 3246-53 ([…])). Gata2 mRNA was determined using quantitative real time PCR and expressed relative to the level beta-actin mRNA control.

The mark [4] stands for this setting: 24 hours pre-incubation with enzyme, read-out: IC50 (nM) HDAC1.
Setting [5] is: 24 hours pre-incubation with enzyme, read-out: IC50 (nM) HDAC2.
[6] abbreviates: 24 hours pre-incubation with enzyme, read-out: IC50 (nM) HDAC3.

HDAC2, sequence (Q92769 whole entry): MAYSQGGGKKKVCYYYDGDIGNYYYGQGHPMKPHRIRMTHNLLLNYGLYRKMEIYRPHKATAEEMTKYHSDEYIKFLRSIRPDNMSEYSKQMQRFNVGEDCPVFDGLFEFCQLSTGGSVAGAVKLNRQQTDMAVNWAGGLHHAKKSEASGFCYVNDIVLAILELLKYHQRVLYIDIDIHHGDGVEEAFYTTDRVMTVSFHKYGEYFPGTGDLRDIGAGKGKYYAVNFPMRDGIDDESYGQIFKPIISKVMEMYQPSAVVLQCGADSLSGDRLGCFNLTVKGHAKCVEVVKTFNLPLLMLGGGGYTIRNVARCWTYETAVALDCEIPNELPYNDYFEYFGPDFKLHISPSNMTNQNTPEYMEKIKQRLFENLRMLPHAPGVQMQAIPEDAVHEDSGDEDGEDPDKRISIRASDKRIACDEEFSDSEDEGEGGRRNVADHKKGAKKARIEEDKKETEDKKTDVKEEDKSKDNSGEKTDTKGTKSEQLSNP
HDAC3, sequence (O15379 whole entry): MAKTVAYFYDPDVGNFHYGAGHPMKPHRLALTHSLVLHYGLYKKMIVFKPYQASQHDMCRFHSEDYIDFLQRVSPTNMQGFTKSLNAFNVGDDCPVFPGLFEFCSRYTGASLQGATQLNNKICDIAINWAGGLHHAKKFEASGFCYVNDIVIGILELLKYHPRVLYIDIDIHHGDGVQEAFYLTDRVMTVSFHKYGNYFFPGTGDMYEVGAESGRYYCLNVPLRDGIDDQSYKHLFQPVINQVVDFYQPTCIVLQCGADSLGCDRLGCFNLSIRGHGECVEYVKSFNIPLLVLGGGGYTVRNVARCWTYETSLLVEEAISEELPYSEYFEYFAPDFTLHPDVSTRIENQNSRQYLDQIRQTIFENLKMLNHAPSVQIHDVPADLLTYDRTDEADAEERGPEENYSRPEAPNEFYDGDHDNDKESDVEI
HDAC3, sequence (Q9Y618 395-489 partner): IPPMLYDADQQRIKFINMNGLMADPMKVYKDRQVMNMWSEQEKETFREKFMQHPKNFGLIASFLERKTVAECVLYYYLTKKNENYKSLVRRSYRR
hERG channel, sequence (Q12809 whole entry): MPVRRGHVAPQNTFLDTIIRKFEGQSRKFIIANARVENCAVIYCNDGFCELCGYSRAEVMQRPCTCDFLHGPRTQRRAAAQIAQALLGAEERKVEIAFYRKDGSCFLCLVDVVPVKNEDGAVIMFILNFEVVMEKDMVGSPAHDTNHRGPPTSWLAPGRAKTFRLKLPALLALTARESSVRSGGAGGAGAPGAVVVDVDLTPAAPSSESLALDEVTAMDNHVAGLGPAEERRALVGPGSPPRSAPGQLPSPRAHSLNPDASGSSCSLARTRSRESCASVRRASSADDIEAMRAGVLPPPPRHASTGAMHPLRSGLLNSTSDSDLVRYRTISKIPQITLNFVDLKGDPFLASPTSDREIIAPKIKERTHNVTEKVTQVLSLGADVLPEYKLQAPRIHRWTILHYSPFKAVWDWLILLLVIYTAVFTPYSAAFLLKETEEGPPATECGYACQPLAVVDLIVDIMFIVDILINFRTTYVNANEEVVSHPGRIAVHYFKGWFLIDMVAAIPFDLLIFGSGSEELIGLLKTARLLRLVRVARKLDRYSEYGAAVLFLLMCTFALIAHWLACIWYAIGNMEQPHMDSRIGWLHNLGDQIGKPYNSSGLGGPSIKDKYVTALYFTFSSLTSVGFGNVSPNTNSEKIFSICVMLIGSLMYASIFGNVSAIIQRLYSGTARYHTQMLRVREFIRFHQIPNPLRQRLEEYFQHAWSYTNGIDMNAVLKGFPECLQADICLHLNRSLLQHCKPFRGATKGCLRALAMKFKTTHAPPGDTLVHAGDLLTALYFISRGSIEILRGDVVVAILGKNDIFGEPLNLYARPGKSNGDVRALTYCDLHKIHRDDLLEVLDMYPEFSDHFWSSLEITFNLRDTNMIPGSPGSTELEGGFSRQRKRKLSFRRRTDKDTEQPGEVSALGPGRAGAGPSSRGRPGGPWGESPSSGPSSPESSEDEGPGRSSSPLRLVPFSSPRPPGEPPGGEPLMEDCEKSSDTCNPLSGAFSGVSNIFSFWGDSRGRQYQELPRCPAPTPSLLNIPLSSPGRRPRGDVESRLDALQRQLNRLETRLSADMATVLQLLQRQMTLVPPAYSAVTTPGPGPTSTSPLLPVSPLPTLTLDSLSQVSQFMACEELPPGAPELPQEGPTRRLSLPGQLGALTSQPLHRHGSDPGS
HDAC1, sequence (Q13547 whole entry): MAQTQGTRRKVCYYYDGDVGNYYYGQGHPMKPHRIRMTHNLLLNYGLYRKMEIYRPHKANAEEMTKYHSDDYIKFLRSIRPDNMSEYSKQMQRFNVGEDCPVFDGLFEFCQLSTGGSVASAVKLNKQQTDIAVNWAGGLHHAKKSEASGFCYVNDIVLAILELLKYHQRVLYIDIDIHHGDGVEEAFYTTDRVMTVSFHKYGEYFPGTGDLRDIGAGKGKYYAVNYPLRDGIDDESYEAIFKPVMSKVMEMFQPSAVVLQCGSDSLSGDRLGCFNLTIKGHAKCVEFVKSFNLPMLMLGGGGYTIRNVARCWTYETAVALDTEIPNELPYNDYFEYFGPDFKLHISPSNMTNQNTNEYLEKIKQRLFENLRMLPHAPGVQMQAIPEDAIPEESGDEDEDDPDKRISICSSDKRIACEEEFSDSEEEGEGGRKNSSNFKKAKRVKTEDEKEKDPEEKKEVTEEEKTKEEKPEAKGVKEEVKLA

For the compound `CC(C)NC(=O)N1CCC(C)(Nc2ncc(C(=O)Nc3cc(-c4cccs4)ccc3N)cn2)CC1` [Compound 001], the “Cell based assay potency” value in data set [1] worked out at 3000 nM. The IC50 (commonly the concentration that inhibits the measured activity by half) on HDAC1 (setting [4]) was determined as 6.5 nM. The hERG at hERG channel is over 30 µM. Further, in the data set “Solubility”, the solubility – broadly, how much of the substance goes into solution per volume – is 16.9 µM (≈ 8.34 µg/mL). Moreover, the IC50 on HDAC2 (setting [5]) came to 38 nM. Moreover, in [2], the bioavailability was 63%; the AUC (in general, the area under the concentration-time curve, a measure of exposure) was determined as 5960 ng·h/mL; the Cmax (in general, the maximum level reached in the sampled fluid or tissue) was 988 ng/mL; the half-life is 3.8 h. For the same compound, the CL renal in [2] was 8.83 mL/min/kg. Besides, the IC50 at HDAC3 (setting [6]) was determined as 427 nM. In the data set “Microsome stability”, this compound yielded a Microsome stability of 11 min.
`CC(C)C1(Nc2ncc(C(=O)Nc3cc(-c4cccs4)ccc3N)cn2)CCN(C(=O)N2CCN(C)CC2)CC1` [Compound 002]: the “Cell based assay potency” value in data set [1] was determined as 3000 nM. For the same compound, the IC50 at HDAC1 (setting [4]) is 7 nM. The same compound had a hERG at hERG channel of over 30 µM. The compound further registered a solubility in the data set “Solubility” of 42.7 µM (≈ 24 µg/mL). This compound registered a Cyp in data set [3] of over 10 µM. The IC50 on HDAC2 (setting [5]) worked out at 28 nM. Further, in data set [2], the bioavailability is 142%, the AUC worked out at 6090 ng·h/mL, the highest concentration (Cmax) is 1010 ng/mL and the half-life is 5.9 h. In data set [2], the CL renal was 20 mL/min/kg. At HDAC3 (setting [6]), the IC50 came out at 203 nM.
In the case of `Nc1ccc(-c2cccs2)cc1NC(=O)c1ccc(NC2CCN(C(=O)N3CCCC3)CC2)cc1` [Compound 006], at HDAC1 (setting [4]), the IC50 came out at 4.7 nM. This compound gave a hERG on hERG channel of over 30 µM. In [3], this compound registered a Cyp of over 10 µM. Besides, on HDAC2 (setting [5]), the half-maximal inhibitory concentration (IC50) came out at 22 nM. In addition, in data set [2], the bioavailability was found to be 76%, the exposure (AUC) worked out at 31600 ng·h/mL, the Cmax was 1520 ng/mL and the half-life is 14.5 h. Besides, the CL renal in [2] is 2.5 mL/min/kg. Moreover, on HDAC3 (setting [6]), the IC50 is 274 nM.
On to `Nc1ccc(-c2cccs2)cc1NC(=O)c1ccc2nc(N3CCNCC3)ccc2c1` [Compound A, reference compound], for which the “induction of % HbG” value in [1] (primary erythroid progenitors, 3 days differentiation (FIG. 6)) was “equivalent dose and time-dependent induction”. In addition, the IC50 is about 4 nM on HDAC1 (reference compound, read-out: IC50 for HDAC1); about 15 nM on HDAC2 (reference compound, read-out: IC50 for HDAC2); about 114 nM at HDAC3 (reference compound, read-out: IC50 for HDAC3). For the same compound, the “induction of Gata2 mRNA” value in the data set on Gata2 mRNA was “equivalent dose and time-dependent induction”.
